# Data as given in patent publication US6387955B1, “Enhanced anti-angiogenic activity of permanently charged derivatives of steroid hormones” (Pharmos Corporation, priority 1997, dated 2002).
# How the values were obtained:
# [1] = test system: MCF-7 tumors; assay: Capillary density in MCF-7 tumor sections by microscopic morphometry; assay type: in vivo, nude mice; conditions: viable regions only
# Experimental: Tumors from TMI-treated animals and from placebo-treated animals were removed after cervical dislocation. Tumors were treated with a biological dye (Davidson Marking Systems, Bradley Products, Bloomington, Minn.) so that histological sections could be oriented in the same direction as MRI slice images. The histological plane corresponding to the central slice of the MRI study was established by a single cut through the tumor. This plane was based on the position of the tumor in the spectrometer, sagittal, transverse and coronal images and anatomical landmarks. The bisected tumors were fixed in 10% formalin, dehydrated in 70% ethanol, blocked in paraffin. 4 μm histological sections were cut, placed on slides and stained with either hematoxylin-eosin or a modified trichrome method. Hematoxylin-eosin was used to assess viability, necrosis and pigmentation. The modified trichrome method was applied to the identification of fibrotic regions (i.e., the dye stains for mucopolysaccharides).
# Vascular density was determined using two techniques: by morphometric analysis of histological sections and by image analysis of GSL-1 lectin stained sections. […] In each field, the number of grid squares containing capillaries, as defined by either the presence of red blood cells or a distinct endothelial cell, were recorded. […]
# [2] = Tolerability in mice; assay type: in vivo; conditions: mice
# [3] = test system: MMP-2 (Gelatinase A) promoter; assay: MMP-2 (Gelatinase A) related CAT activity in transfected bovine endothelial cells; assay type: cell-based
# Experimental: Regulation of collagenase gene expression (for MMP-2 and MMP-9) was studied by measuring the activation of the relevant promoters linked to chloramphenicol acetyl transferase (CAT) as a reporter gene. The relevant vectors were introduced into the fibrosarcoma and endothelial cells by the lipofection as indicated by the manufacturer. CAT activity was determined after 3, 6 and 24 hrs either in the absence or presence of various concentrations of TMI.
# To further examine where the inhibitory effects of TMI are manifested, human fibrosarcoma cells as well as bovine endothelial cells were transfected with plasmids containing the promoters for type IV collagenase (both MMP-2 and MMP-9) and the chloramphenicol acetyl transferase (CAT) construct to act as a reporter. Simian virus-40 (SV-40) served as the positive control. TMI was added to the transfected cells at concentrations of 1, 5 and 10 μM for 2 days, at which time cell viability was confirmed by trypan blue exclusion and cell counting.
# In endothelial cells, TMI reduced CAT activity by 45% at 1.0 μM and by 80% at 10 μM.
# [4] = test system: MCF-7 tumors; assay: Tumor necrosis in MCF-7 tumors by T2-weighted MRI; assay type: in vivo, nude mice
# Experimental: Female CD1-nu/nu athymic mice (6 weeks old) were obtained from the Weizmann Institute Department of Animal Services. MCF-7 cells, serially passed as described above, were detached from the culturing flasks with 0.03% EDTA in phosphate buffered saline (PBS) and washed several times in normal saline. Cells (10^7/innoculum) were then injected into the ventral fat pad at the level of the breast. Coincident with cell introduction, a slow-release pellet of estradiol (0.72 mg/pellet, 45-day release profile; Innovative Research, Sarasota, Fla.) was implanted subcutaneously in the flank of the animal. Mice were anesthetized with ketamine/Rompun (i.p.) for the surgical procedures. […] At this point, animals were randomized into four study groups. In the first, the estrogen pellet was removed and replaced with a slow-release TMI-laden pellet (6.3 mg, 45-day release) (n=5). In the second group, the estrogen pellet was removed and replaced with a tamoxifen pellet (n=7). The third group was treated with a blank (placebo) pellet (n=5), while the fourth group was reimplanted with an estradiol pellet (n=4). TMI and placebo-treated animals were imaged (under ketamine/Rompun anesthesia) either immediately before pellet exchange (day 0) or at day 3, 6, 12 and 25 after pellet exchange.
# MRI images were recorded with a Bruker 4.7 (tesla)/30 Biospec spectrometer (Bruker Medizintechnik, Rheinstetten, Germany). 1H Spin-echo images were recorded at 200.12 MHz using a custom-made 4.5 cm rf coil with an image data matrix of 256×128 pixels. Pilot scans of the tumors were completed using a fast transverse multi-slice spin-echo sequence (giving T1-weighted spectra; inter-echo time (TE)=16 msec, recovery time (TR)=500 msec) followed by T2-weighted sequences in which axial slices perpendicular to the spine (i.e., a coronal orientation) were recorded. In the latter case, spin-echo images were obtained using a 4 cm field of view, 1 mm slice thickness, 1.2 mm slice-to-slice distance and a four-sequence average. The TE and TR were optimized to provide the best image contrast generating values of 80 and 3200 msec, respectively. This gave a total imaging time of approximately 30 min. Under the conditions reported, the in-plane resolution was 155×310 μm. Tumor size was calculated using a slice-to-slice reconstruction in which the slice surface area was obtained from histograms provided by the resident Bruker software package using the following relationship:
# where XSA is the cross-sectional area of an internal slice, ES is the cross-sectional area of an edge slice, l is the slice thickness and ssd is the distance from the middle of one slice to the middle of the next. For image analysis, the average pixel intensity of viable portions of MCF-7 tumors was determined from a central tumor slice using histograms generated by the dedicated Bruker software package. […] Fibrosis was defined as those areas manifesting a decrease in pixel intensity of […].
# In vivo tumor histology was assessed for TMI and placebo-treated tumors using T2-weighted MR images. […] At this time, the area of necrosis was two-fold higher than that observed on day 0 (increasing from an average of 20% to approximately 40%).
compound,measurement,setting,value
"CC/C(=C(\c1ccccc1)c1ccc(OCC[N+](C)(C)C)cc1)c1ccccc1 [TMI, Tamoxifen methiodide]",reduction in capillary area compared with the placebo,[1],50%
same,tolerability,[2],well tolerated
same,reduction of CAT activity,[3]; 1.0 μM,45%
same,reduction of CAT activity,[3]; 10 μM,80%
same,"total area of necrosis, day three average",[4]; day 3 after pellet exchange,72%
same,maximum extent of necrosis,[4]; preliminary comparison of TMI and tamoxifen,72%
same,onset of tumor necrosis,[4]; sampling day after pellet exchange,3 days
